The source of these data is PMC4774911, “Biochemical Screening of Five Protein Kinases from Plasmodium falciparum against 14,000 Cell-Active Compounds” (PLoS ONE, 2016).

Values joined by “and” are separate entries in the source; they are usually repeats but may differ in a detail not shown here. Identical values can stand only once.

Common to all, as to test: biochemical
Holding throughout (design): endogenous in cells; host or cells: K562 cell extract; species or system K562 (extract); replicate k of n = 2 (each experiment ID is one independent experiment; two experiment IDs per compound)
What all share (settings): read-out: KDapp

Test [1] addresses T1, TBK1 (Homo sapiens, UniProt Q9UHD2).
T1 sequence (Q9UHD2 1-729): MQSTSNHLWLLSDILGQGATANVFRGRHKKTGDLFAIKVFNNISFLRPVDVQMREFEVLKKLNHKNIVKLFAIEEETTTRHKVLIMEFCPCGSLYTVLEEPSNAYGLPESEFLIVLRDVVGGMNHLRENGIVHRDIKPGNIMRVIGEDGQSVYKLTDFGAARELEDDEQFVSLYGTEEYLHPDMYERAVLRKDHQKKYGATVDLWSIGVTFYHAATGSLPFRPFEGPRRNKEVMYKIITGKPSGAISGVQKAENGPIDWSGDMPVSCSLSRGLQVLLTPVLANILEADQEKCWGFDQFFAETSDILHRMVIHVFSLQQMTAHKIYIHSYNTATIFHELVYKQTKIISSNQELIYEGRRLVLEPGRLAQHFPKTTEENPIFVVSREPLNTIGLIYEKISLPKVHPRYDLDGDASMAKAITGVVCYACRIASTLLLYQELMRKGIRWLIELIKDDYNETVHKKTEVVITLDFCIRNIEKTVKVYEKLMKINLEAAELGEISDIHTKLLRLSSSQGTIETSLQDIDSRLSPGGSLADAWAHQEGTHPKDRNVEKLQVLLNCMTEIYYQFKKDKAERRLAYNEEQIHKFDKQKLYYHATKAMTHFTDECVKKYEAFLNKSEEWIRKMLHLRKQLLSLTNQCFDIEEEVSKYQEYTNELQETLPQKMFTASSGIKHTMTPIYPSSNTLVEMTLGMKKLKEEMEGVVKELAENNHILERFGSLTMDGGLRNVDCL

Test [2] deals with PRKACA (Homo sapiens, UniProt P17612).
Test [3] addresses T2, TGFBR1 (Homo sapiens, UniProt P36897).
T2 sequence (P36897 1-503): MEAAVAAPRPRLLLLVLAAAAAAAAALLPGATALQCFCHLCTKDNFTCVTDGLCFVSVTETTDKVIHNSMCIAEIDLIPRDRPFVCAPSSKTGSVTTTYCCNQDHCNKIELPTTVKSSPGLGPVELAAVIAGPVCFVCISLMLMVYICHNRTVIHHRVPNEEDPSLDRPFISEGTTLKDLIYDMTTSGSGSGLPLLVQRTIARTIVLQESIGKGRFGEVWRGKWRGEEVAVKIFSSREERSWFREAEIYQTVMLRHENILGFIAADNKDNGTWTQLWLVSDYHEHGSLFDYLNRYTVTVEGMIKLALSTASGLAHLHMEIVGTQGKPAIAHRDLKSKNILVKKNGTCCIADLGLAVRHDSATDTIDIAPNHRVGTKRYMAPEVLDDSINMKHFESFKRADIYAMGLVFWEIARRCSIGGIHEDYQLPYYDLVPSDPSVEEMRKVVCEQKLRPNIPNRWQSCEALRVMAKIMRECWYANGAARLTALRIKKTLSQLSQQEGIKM

Test [4] deals with T3, TNK1 (Homo sapiens, UniProt Q13470).
T3 sequence (Q13470 1-666): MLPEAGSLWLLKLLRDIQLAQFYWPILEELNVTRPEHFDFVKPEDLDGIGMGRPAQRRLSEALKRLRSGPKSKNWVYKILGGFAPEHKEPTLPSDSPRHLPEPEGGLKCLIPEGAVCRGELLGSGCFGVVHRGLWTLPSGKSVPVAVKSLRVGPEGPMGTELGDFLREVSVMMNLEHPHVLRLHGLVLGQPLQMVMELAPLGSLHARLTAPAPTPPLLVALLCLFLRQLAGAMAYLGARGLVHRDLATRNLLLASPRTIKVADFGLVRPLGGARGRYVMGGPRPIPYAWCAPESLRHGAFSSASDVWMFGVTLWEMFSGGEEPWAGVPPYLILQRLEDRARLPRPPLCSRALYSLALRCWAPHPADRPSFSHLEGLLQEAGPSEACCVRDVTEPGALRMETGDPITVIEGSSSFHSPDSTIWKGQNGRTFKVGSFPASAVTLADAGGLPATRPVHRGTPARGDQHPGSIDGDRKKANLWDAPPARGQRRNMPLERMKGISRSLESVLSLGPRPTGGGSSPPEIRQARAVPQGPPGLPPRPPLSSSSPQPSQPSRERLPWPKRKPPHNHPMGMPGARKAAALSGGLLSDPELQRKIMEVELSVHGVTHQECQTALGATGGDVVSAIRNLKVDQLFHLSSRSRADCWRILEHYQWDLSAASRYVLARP

Test [5] addresses T4, MAPKAPK5 (Homo sapiens, UniProt Q8IW41).
T4 sequence (Q8IW41 1-473): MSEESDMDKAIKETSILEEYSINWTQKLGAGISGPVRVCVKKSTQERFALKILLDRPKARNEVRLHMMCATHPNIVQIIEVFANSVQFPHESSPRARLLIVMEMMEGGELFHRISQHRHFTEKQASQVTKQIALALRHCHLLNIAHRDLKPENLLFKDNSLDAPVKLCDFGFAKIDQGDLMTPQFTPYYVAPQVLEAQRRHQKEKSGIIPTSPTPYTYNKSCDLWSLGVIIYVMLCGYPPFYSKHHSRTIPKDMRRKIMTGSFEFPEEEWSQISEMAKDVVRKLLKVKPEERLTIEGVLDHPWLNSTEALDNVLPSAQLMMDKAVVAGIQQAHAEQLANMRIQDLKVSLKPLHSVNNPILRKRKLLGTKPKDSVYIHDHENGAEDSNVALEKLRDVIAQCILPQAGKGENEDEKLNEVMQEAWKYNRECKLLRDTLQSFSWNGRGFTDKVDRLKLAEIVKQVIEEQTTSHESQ

As for `CN1CCN(c2ccc(Nc3ncc(C#N)c(Nc4ccccc4C(N)=O)n3)cc2)CC1.Cl` [TCMDC-134116], the Kd in test [1] was 229 nM and 220 nM; in test [2] it was 1330 nM. As for `Cl.NCC1(c2nc(-c3ccc(Cl)c(O)c3)c(-c3ccncc3)[nH]2)CCCCC1` [TCMDC-141154], the Kd in test [3] is 59.6 nM and 87.9 nM.

With `CN(C)CC(O)COc1ccc(Nc2ncc([N+](=O)[O-])c(Nc3ccccc3O)n2)cc1.O=C(O)C(F)(F)F` (centres unmarked) [TCMDC-141399], the Kd was 1150 nM and 464 nM in test [4]; 292 nM in test [5].
